According to ChEMBL document CHEMBL1201862, “PubChem BioAssay data set” (2004):
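In this assay, cells in 96-well plates receive the compound at five concentrations for 48 hours. Endpoints are linearly interpolated between the surrounding concentrations. At the GI50, growth is halved.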 The source made the active and inactive calls. Cut-off read from the data, not from the text of the source: active = GI50 up to about 1.1 µM and inactive = higher.

Columns and labels:
Experiment in all cases: NCI anticancer screen, dose series, 48 h
MDA-MB-435 = system: MDA-MB-435
SK-MEL-2 = system: SK-MEL-2
NCI-H226 = system: NCI-H226
NCI-H460 = system: NCI-H460
UACC-257 = system: UACC-257
RPMI-8226 = system: RPMI-8226
SNB-19 = system: SNB-19
NCI/ADR-RES = system: NCI/ADR-RES
MDA-MB-231 = system: MDA-MB-231
SK-MEL-28 = system: SK-MEL-28
SN12C = system: SN12C
OVCAR-4 = system: OVCAR-4
RXF 393 = system: RXF 393
HCT-116 = system: HCT-116
OVCAR-5 = system: OVCAR-5
SW-620 = system: SW-620
UO-31 = system: UO-31
HT-29 = system: HT-29
SF-539 = system: SF-539
M14 = system: M14

Measured: GI50

CNC(=S)Nc1sc2c(c1C#N)CCCC2
inactive: MDA-MB-435 > 75 µM | SK-MEL-2 > 75 µM | NCI-H226 > 75 µM | NCI-H460 > 75 µM | UACC-257 > 75 µM | RPMI-8226 > 75 µM | SNB-19 > 75 µM | NCI/ADR-RES > 75 µM | MDA-MB-231 > 75 µM | SK-MEL-28 > 75 µM | SN12C > 75 µM | OVCAR-4 > 75 µM | RXF 393 > 75 µM | HCT-116 > 75 µM | OVCAR-5 > 75 µM | SW-620 > 75 µM | UO-31 > 75 µM | HT-29 > 75 µM

CCOc1cc2c(cc1O)/C(=N/NS(=O)(=O)c1ccc(C)cc1)C[C@@H]1[C@@H]2CC[C@]2(C)[C@@H](O)CC[C@@H]12
inactive: SK-MEL-2 3.94 µM | SF-539 3.45 µM | NCI-H226 6.01 µM | NCI-H460 4.65 µM | UACC-257 58.2 µM | RPMI-8226 2.92 µM | SNB-19 8.79 µM | NCI/ADR-RES 3.5 µM | MDA-MB-231 8.51 µM | SK-MEL-28 > 100 µM | OVCAR-4 4.78 µM | RXF 393 4.85 µM | OVCAR-5 21 µM | SW-620 3.52 µM | UO-31 4.2 µM | M14 3.21 µM | HT-29 2.89 µM

CCCCCCCCCCCCCCCCCCOc1ccc(/C=C/C2=[N+](CCCl)CCO2)cc1
inactive: MDA-MB-435 > 100 µM | SK-MEL-2 > 100 µM | SF-539 > 100 µM | NCI-H460 > 100 µM | UACC-257 > 100 µM | RPMI-8226 > 100 µM | SNB-19 > 100 µM | NCI/ADR-RES > 100 µM | MDA-MB-231 41 µM | SK-MEL-28 > 100 µM | SN12C > 100 µM | OVCAR-4 > 100 µM | HCT-116 > 100 µM | OVCAR-5 95.7 µM | SW-620 > 100 µM | UO-31 > 100 µM | M14 > 100 µM | HT-29 > 100 µM

CCOC(=O)c1c2ccccc2n2c(N)c(C(N)=O)nnc12
inactive: MDA-MB-435 > 100 µM | SK-MEL-2 20.5 µM | SF-539 16.2 µM | NCI-H460 50.4 µM | UACC-257 99.8 µM | RPMI-8226 > 100 µM | SNB-19 19.3 µM | NCI/ADR-RES 35.3 µM | MDA-MB-231 18.7 µM | SK-MEL-28 > 100 µM | SN12C > 100 µM | OVCAR-4 > 100 µM | RXF 393 16.1 µM | HCT-116 31.1 µM | OVCAR-5 > 100 µM | SW-620 > 100 µM | UO-31 74.3 µM | M14 > 100 µM | HT-29 > 100 µM

COc1c(C)c(C/C=C(\C)CC/C=C(\C)CCC=C(C)C)c(OC)c(OC)c1OC
inactive: MDA-MB-435 21.5 µM | SK-MEL-2 > 100 µM | SF-539 > 100 µM | NCI-H460 > 100 µM | UACC-257 64.9 µM | SNB-19 > 100 µM | NCI/ADR-RES > 100 µM | MDA-MB-231 > 100 µM | SN12C > 100 µM | OVCAR-4 > 100 µM | RXF 393 44 µM | HCT-116 > 100 µM | OVCAR-5 > 100 µM | SW-620 > 100 µM | UO-31 > 100 µM | M14 > 100 µM | HT-29 76.2 µM

C=CCOC(=O)Cn1ccc(=O)[nH]c1=O
inactive: SK-MEL-2 > 100 µM | SF-539 > 100 µM | NCI-H226 > 100 µM | NCI-H460 > 100 µM | UACC-257 > 100 µM | RPMI-8226 > 100 µM | SNB-19 > 100 µM | NCI/ADR-RES > 100 µM | MDA-MB-231 > 100 µM | SK-MEL-28 > 100 µM | SN12C > 100 µM | HCT-116 > 100 µM | OVCAR-5 > 100 µM | SW-620 > 100 µM | UO-31 > 100 µM | M14 > 100 µM | HT-29 > 100 µM

CCOC(=O)/C(=C\NC(N)=S)C(=O)c1ccccc1
inactive: MDA-MB-435 > 100 µM | SK-MEL-2 > 100 µM | SF-539 > 100 µM | NCI-H226 > 100 µM | NCI-H460 > 100 µM | UACC-257 > 100 µM | SNB-19 > 100 µM | NCI/ADR-RES > 100 µM | MDA-MB-231 > 100 µM | SK-MEL-28 > 100 µM | SN12C > 100 µM | OVCAR-4 > 100 µM | RXF 393 > 100 µM | HCT-116 > 100 µM | OVCAR-5 > 100 µM | SW-620 > 100 µM | UO-31 > 100 µM | M14 > 100 µM | HT-29 > 100 µM

O=c1c(C(c2ccco2)c2c(O)oc3ccccc3c2=O)c(O)oc2ccccc12
inactive: MDA-MB-435 31.6 µM | SK-MEL-2 51.6 µM | NCI-H226 64.9 µM | NCI-H460 > 100 µM | UACC-257 23.4 µM | RPMI-8226 26.1 µM | SNB-19 44.6 µM | NCI/ADR-RES 30.5 µM | MDA-MB-231 20 µM | SK-MEL-28 21.2 µM | SN12C 25.1 µM | OVCAR-4 70.8 µM | HCT-116 78 µM | SW-620 21.4 µM | UO-31 25.7 µM | HT-29 47.6 µM

Cn1c(=O)c(-c2ccccc2)c(N=[N+]=[N-])c2ccccc21
inactive: MDA-MB-435 45.4 µM | SF-539 54 µM | NCI-H226 67 µM | NCI-H460 39.4 µM | UACC-257 > 100 µM | SNB-19 > 100 µM | NCI/ADR-RES 28.4 µM | MDA-MB-231 49.5 µM | SK-MEL-28 66.4 µM | SN12C 95.9 µM | OVCAR-4 56.5 µM | RXF 393 80.2 µM | HCT-116 69.5 µM | OVCAR-5 > 100 µM | SW-620 48.3 µM | UO-31 46.8 µM | M14 63.2 µM | HT-29 23.5 µM

CCOC(=O)c1ccc(-c2onc(C)c2Br)[nH]1
inactive: MDA-MB-435 85.1 µM | SK-MEL-2 76 µM | NCI-H460 > 100 µM | UACC-257 47.2 µM | RPMI-8226 86.7 µM | SNB-19 66.1 µM | NCI/ADR-RES 29.7 µM | MDA-MB-231 41.7 µM | SK-MEL-28 > 100 µM | OVCAR-4 43.2 µM | RXF 393 21.4 µM | HCT-116 30.1 µM | OVCAR-5 > 100 µM | SW-620 60 µM | UO-31 32.7 µM | M14 62.7 µM | HT-29 39.5 µM

C=C(C)[C@@H]1CC[C@]2(CO)CC[C@]3(C)[C@H](CC[C@@H]4[C@@]5(C)CC[C@H](O)C(C)(C)[C@@H]5CC[C@]43C)[C@@H]12 [BETULIN]
inactive: MDA-MB-435 19.5 µM | SF-539 11.7 µM | NCI-H226 39 µM | NCI-H460 19.3 µM | UACC-257 23.3 µM | SNB-19 > 10 µM | NCI/ADR-RES 30.4 µM | MDA-MB-231 33.3 µM | SK-MEL-28 33.1 µM | SN12C 24.8 µM | RXF 393 10.3 µM | HCT-116 30.8 µM | OVCAR-5 55.7 µM | SW-620 20.1 µM | UO-31 11.1 µM | M14 51.1 µM | HT-29 20.6 µM

COc1ccc2c(c1)-c1[nH]c3ccccc3c1CC2
inactive: MDA-MB-435 16.6 µM | SK-MEL-2 15.5 µM | SF-539 17.4 µM | NCI-H226 13.3 µM | NCI-H460 15.6 µM | UACC-257 16.3 µM | RPMI-8226 20.4 µM | SNB-19 15.7 µM | NCI/ADR-RES 11.9 µM | MDA-MB-231 16.8 µM | SK-MEL-28 16.8 µM | SN12C 14.4 µM | OVCAR-4 17.1 µM | HCT-116 16.9 µM | OVCAR-5 15.7 µM | SW-620 16.8 µM | UO-31 15.5 µM | M14 17.4 µM | HT-29 11 µM

O=C(O)CCC(c1ccccc1)(c1ccccc1)c1ccccc1
inactive: MDA-MB-435 33 µM | SK-MEL-2 22.9 µM | SF-539 33.3 µM | NCI-H226 88.5 µM | NCI-H460 25.2 µM | UACC-257 37 µM | RPMI-8226 27 µM | SNB-19 42.3 µM | NCI/ADR-RES 36.5 µM | MDA-MB-231 43.6 µM | SK-MEL-28 50.5 µM | SN12C 38.9 µM | OVCAR-4 34.5 µM | OVCAR-5 > 100 µM | SW-620 39.8 µM | UO-31 38.9 µM | M14 33 µM | HT-29 36.1 µM

C[C@]12Cc3cnn(-c4ccc(F)cc4)c3NC1CC[C@@H]1C2CC[C@@]2(C)C1CC[C@@H]2O (stereo partly specified)
inactive: MDA-MB-435 7.8 µM | SF-539 1.55 µM | NCI-H226 7.93 µM | NCI-H460 3.65 µM | UACC-257 5.24 µM | SNB-19 15.5 µM | MDA-MB-231 6.97 µM | SK-MEL-28 14.1 µM | SN12C 13.2 µM | OVCAR-4 13.2 µM | RXF 393 1.16 µM | HCT-116 3.94 µM | OVCAR-5 12.7 µM | SW-620 3.83 µM | UO-31 8.61 µM | M14 11.1 µM | HT-29 1.83 µM

c1ccc(C2(c3ccccc3)S/C(=C3/SC(c4ccccc4)(c4ccccc4)c4ccccc43)c3ccccc32)cc1
inactive: MDA-MB-435 > 100 µM | SK-MEL-2 > 100 µM | SF-539 > 100 µM | NCI-H226 > 100 µM | NCI-H460 > 100 µM | UACC-257 > 100 µM | SNB-19 > 100 µM | NCI/ADR-RES > 100 µM | MDA-MB-231 > 100 µM | SK-MEL-28 > 100 µM | SN12C > 100 µM | OVCAR-4 > 100 µM | RXF 393 > 100 µM | HCT-116 > 100 µM | OVCAR-5 > 100 µM | SW-620 > 100 µM | UO-31 > 100 µM | M14 > 100 µM | HT-29 > 100 µM
